Measured values from ChEMBL document CHEMBL1201862, “PubChem BioAssay data set” (2004).
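Method: 48-hour compound exposure of cells in 96-well plates, five concentrations, linear interpolation of endpoints. GI50 is the concentration that inhibits growth by half.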 The source made the active and inactive calls. Cut-off read from the data, not from the text of the source: active = GI50 up to about 1.1 µM and inactive = higher.

Legend:
Assay in all cases: DTP human tumour cell line panel, 48 h
Malme-3M = tested on: Malme-3M
SN12C = tested on: SN12C
MDA-MB-231 = tested on: MDA-MB-231
RXF 393 = tested on: RXF 393
SR = tested on: SR
HL-60 = tested on: HL-60
NCI-H23 = tested on: NCI-H23
OVCAR-4 = tested on: OVCAR-4
BT-549 = tested on: BT-549
DU-145 = tested on: DU-145
MCF7 = tested on: MCF7
EKVX = tested on: EKVX
SF-268 = tested on: SF-268
ACHN = tested on: ACHN
M14 = tested on: M14
SNB-19 = tested on: SNB-19
TK-10 = tested on: TK-10
SK-OV-3 = tested on: SK-OV-3
SF-539 = tested on: SF-539
UO-31 = tested on: UO-31
LOX IMVI = tested on: LOX IMVI
NCI-H460 = tested on: NCI-H460
HOP-92 = tested on: HOP-92
IGROV-1 = tested on: IGROV-1
T47D = tested on: T47D
OVCAR-3 = tested on: OVCAR-3
NCI/ADR-RES = tested on: NCI/ADR-RES
MDA-MB-435 = tested on: MDA-MB-435
SF-295 = tested on: SF-295
UACC-62 = tested on: UACC-62
U-251 = tested on: U-251
KM12 = tested on: KM12
HT-29 = tested on: HT-29
Hs-578T = tested on: Hs-578T
PC-3 = tested on: PC-3
NCI-H522 = tested on: NCI-H522
SK-MEL-2 = tested on: SK-MEL-2
OVCAR-8 = tested on: OVCAR-8
HCT-15 = tested on: HCT-15
SW-620 = tested on: SW-620
MDA-N = tested on: MDA-N
786-0 = tested on: 786-0
OVCAR-5 = tested on: OVCAR-5
HCC 2998 = tested on: HCC 2998
UACC-257 = tested on: UACC-257
A549 = tested on: A549
NCI-H226 = tested on: NCI-H226
SNB-75 = tested on: SNB-75
HCT-116 = tested on: HCT-116
CCRF-CEM = tested on: CCRF-CEM
SK-MEL-28 = tested on: SK-MEL-28
K562 = tested on: K562
CAKI-1 = tested on: CAKI-1
COLO 205 = tested on: COLO 205
SK-MEL-5 = tested on: SK-MEL-5
RPMI-8226 = tested on: RPMI-8226
HOP-62 = tested on: HOP-62
MOLT-4 = tested on: MOLT-4
A498 = tested on: A498

Compound: Cc1[nH]c(=O)c2oc3cc4ccccc4cc3c2c1C(=O)O
- GI50 (Malme-3M): > 10 µM (inactive)
- GI50 (SN12C): > 10 µM (inactive)
- GI50 (MDA-MB-231): > 10 µM (inactive)
- GI50 (RXF 393): > 10 µM (inactive)
- GI50 (SR): > 10 µM (inactive)
- GI50 (HL-60): > 10 µM (inactive)
- GI50 (NCI-H23): > 10 µM (inactive)
- GI50 (OVCAR-4): > 10 µM (inactive)
- GI50 (BT-549): > 10 µM (inactive)
- GI50 (DU-145): > 10 µM (inactive)
- GI50 (MCF7): > 10 µM (inactive)
- GI50 (EKVX): > 10 µM (inactive)
- GI50 (SF-268): > 10 µM (inactive)
- GI50 (ACHN): > 10 µM (inactive)
- GI50 (M14): > 10 µM (inactive)
- GI50 (SNB-19): > 10 µM (inactive)
- GI50 (TK-10): > 10 µM (inactive)
- GI50 (SK-OV-3): > 10 µM (inactive)
- GI50 (SF-539): > 10 µM (inactive)
- GI50 (UO-31): > 10 µM (inactive)
- GI50 (LOX IMVI): > 10 µM (inactive)
- GI50 (NCI-H460): > 10 µM (inactive)
- GI50 (HOP-92): > 10 µM (inactive)
- GI50 (IGROV-1): > 10 µM (inactive)
- GI50 (T47D): > 10 µM (inactive)
- GI50 (OVCAR-3): > 10 µM (inactive)
- GI50 (NCI/ADR-RES): > 10 µM (inactive)
- GI50 (MDA-MB-435): > 10 µM (inactive)
- GI50 (SF-295): 8.99 µM (inactive)
- GI50 (UACC-62): > 10 µM (inactive)
- GI50 (U-251): > 10 µM (inactive)
- GI50 (KM12): > 10 µM (inactive)
- GI50 (HT-29): > 10 µM (inactive)
- GI50 (Hs-578T): > 10 µM (inactive)
- GI50 (PC-3): > 10 µM (inactive)
- GI50 (NCI-H522): > 10 µM (inactive)
- GI50 (SK-MEL-2): > 10 µM (inactive)
- GI50 (OVCAR-8): > 10 µM (inactive)
- GI50 (HCT-15): > 10 µM
- GI50 (SW-620): > 10 µM (inactive)
- GI50 (MDA-N): > 10 µM (inactive)
- GI50 (786-0): > 10 µM (inactive)
- GI50 (OVCAR-5): > 10 µM (inactive)
- GI50 (HCC 2998): > 10 µM (inactive)
- GI50 (UACC-257): > 10 µM (inactive)
- GI50 (A549): > 10 µM (inactive)
- GI50 (NCI-H226): > 10 µM (inactive)
- GI50 (SNB-75): > 10 µM (inactive)

Compound: NC(Cc1ccccc1)C(=O)OCN1C(=O)C2C3C=CC(C2C1=O)C1C(=O)N(COC(=O)C(N)Cc2ccccc2)C(=O)C31 (stereo unspecified)
- GI50 (Malme-3M): 17.2 µM (inactive)
- GI50 (SN12C): > 100 µM (inactive)
- GI50 (HCT-116): 42.5 µM (inactive)
- GI50 (MDA-MB-231): 78 µM (inactive)
- GI50 (RXF 393): > 100 µM (inactive)
- GI50 (SR): 24.4 µM (inactive)
- GI50 (CCRF-CEM): 21.7 µM (inactive)
- GI50 (SK-MEL-28): 67.6 µM (inactive)
- GI50 (HL-60): 17.4 µM (inactive)
- GI50 (NCI-H23): 66.2 µM (inactive)
- GI50 (BT-549): > 100 µM (inactive)
- GI50 (DU-145): > 100 µM (inactive)
- GI50 (MCF7): 17.5 µM (inactive)
- GI50 (EKVX): > 100 µM (inactive)
- GI50 (SF-268): > 100 µM (inactive)
- GI50 (K562): 28.5 µM (inactive)
- GI50 (ACHN): > 100 µM (inactive)
- GI50 (CAKI-1): > 100 µM (inactive)
- GI50 (M14): 92 µM (inactive)
- GI50 (COLO 205): 75.9 µM (inactive)
- GI50 (SNB-19): > 100 µM (inactive)
- GI50 (TK-10): > 100 µM (inactive)
- GI50 (SF-539): > 100 µM (inactive)
- GI50 (UO-31): > 100 µM (inactive)
- GI50 (LOX IMVI): 22 µM (inactive)
- GI50 (NCI-H460): 67.9 µM (inactive)
- GI50 (IGROV-1): > 100 µM (inactive)
- GI50 (T47D): > 100 µM (inactive)
- GI50 (OVCAR-3): > 100 µM (inactive)
- GI50 (NCI/ADR-RES): > 100 µM (inactive)
- GI50 (MDA-MB-435): > 100 µM (inactive)
- GI50 (SF-295): > 100 µM (inactive)
- GI50 (UACC-62): 38.8 µM (inactive)
- GI50 (U-251): > 100 µM (inactive)
- GI50 (HT-29): 18.4 µM (inactive)
- GI50 (Hs-578T): > 100 µM (inactive)
- GI50 (SK-MEL-5): 49.8 µM (inactive)
- GI50 (PC-3): > 100 µM (inactive)
- GI50 (NCI-H522): > 100 µM (inactive)
- GI50 (RPMI-8226): 23.2 µM (inactive)
- GI50 (SK-MEL-2): 22.6 µM (inactive)
- GI50 (OVCAR-8): > 100 µM (inactive)
- GI50 (HCT-15): 27.4 µM
- GI50 (SW-620): 28.8 µM (inactive)
- GI50 (MDA-N): > 100 µM (inactive)
- GI50 (786-0): 35.7 µM (inactive)
- GI50 (HOP-62): > 100 µM (inactive)
- GI50 (OVCAR-5): > 100 µM (inactive)
- GI50 (HCC 2998): > 100 µM (inactive)
- GI50 (UACC-257): 75.2 µM (inactive)
- GI50 (MOLT-4): 22.4 µM (inactive)
- GI50 (A549): > 100 µM (inactive)
- GI50 (NCI-H226): > 100 µM (inactive)

Compound: O=[N+]([O-])C(=C(Nc1cccc2cccnc12)Nc1cccc2cccnc12)C(Cl)=C(Cl)Cl
- GI50 (Malme-3M): > 92.3 µM (inactive)
- GI50 (SN12C): > 55.1 µM (inactive)
- GI50 (HCT-116): 45 µM (inactive)
- GI50 (MDA-MB-231): 7.35 µM (inactive)
- GI50 (RXF 393): 30 µM (inactive)
- GI50 (SR): > 100 µM (inactive)
- GI50 (CCRF-CEM): 34 µM (inactive)
- GI50 (SK-MEL-28): > 56.9 µM (inactive)
- GI50 (NCI-H23): 31.6 µM (inactive)
- GI50 (OVCAR-4): 34 µM (inactive)
- GI50 (BT-549): 30.1 µM (inactive)
- GI50 (DU-145): 58.3 µM (inactive)
- GI50 (MCF7): 13.5 µM (inactive)
- GI50 (EKVX): > 100 µM (inactive)
- GI50 (SF-268): 42.9 µM (inactive)
- GI50 (K562): 27.9 µM (inactive)
- GI50 (ACHN): 22 µM (inactive)
- GI50 (CAKI-1): > 49.9 µM (inactive)
- GI50 (M14): > 100 µM (inactive)
- GI50 (COLO 205): 31 µM (inactive)
- GI50 (SNB-19): > 96.2 µM (inactive)
- GI50 (TK-10): > 100 µM (inactive)
- GI50 (A498): > 100 µM (inactive)
- GI50 (SK-OV-3): > 100 µM (inactive)
- GI50 (SF-539): > 100 µM (inactive)
- GI50 (UO-31): > 100 µM (inactive)
- GI50 (LOX IMVI): 50.4 µM (inactive)
- GI50 (NCI-H460): 33.4 µM (inactive)
- GI50 (IGROV-1): 3.98 µM (inactive)
- GI50 (T47D): 29.1 µM (inactive)
- GI50 (OVCAR-3): 27.3 µM (inactive)
- GI50 (NCI/ADR-RES): 28.8 µM (inactive)
- GI50 (MDA-MB-435): 36.6 µM (inactive)
- GI50 (SF-295): 43 µM (inactive)
- GI50 (UACC-62): 77.1 µM (inactive)
- GI50 (U-251): 55.1 µM (inactive)
- GI50 (KM12): 45.2 µM (inactive)
- GI50 (HT-29): > 39 µM (inactive)
- GI50 (Hs-578T): > 21.7 µM (inactive)
- GI50 (SK-MEL-5): 4.97 µM (inactive)
- GI50 (PC-3): > 76 µM (inactive)
- GI50 (NCI-H522): 17.3 µM (inactive)
- GI50 (RPMI-8226): 23.6 µM (inactive)
- GI50 (OVCAR-8): 33.2 µM (inactive)
- GI50 (HCT-15): 31.2 µM
- GI50 (SW-620): 66.7 µM (inactive)
- GI50 (MDA-N): 31.7 µM (inactive)
- GI50 (786-0): > 71.3 µM (inactive)
- GI50 (HOP-62): > 100 µM (inactive)
- GI50 (OVCAR-5): > 100 µM (inactive)
- GI50 (HCC 2998): > 61.7 µM (inactive)
- GI50 (MOLT-4): 74.1 µM (inactive)
- GI50 (A549): > 79.8 µM (inactive)
- GI50 (NCI-H226): 63.1 µM (inactive)
- GI50 (SNB-75): > 100 µM (inactive)
